Experiments:
Assay in all cases: KinaseProfiler kinase profiling
Assay type in all cases: biochemical
Settings in all cases: 10 μM, ATP near Km
[1] = target: T1, CDK2/cyclinE (Homo sapiens, UniProt P24941)
T1 construct: purchased Millipore, Inc. (KinaseProfiler service)
Procedure, shortened: (§1)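 Mean of two replicates, shown as POC. Conditions: 10 μM compound, kinase-specific ATP approximately at Km.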

[2] = target: T2, CDK9/cyclinT1 (Homo sapiens, UniProt P50750)
T2 construct: purchased Millipore, Inc. (KinaseProfiler service)
Procedure, shortened: as §1

[3] = target: T3, CK1gamma2 (Homo sapiens, UniProt P78368)
T3 construct: purchased Millipore, Inc. (KinaseProfiler service)
Procedure, shortened: as §1

[4] = target: T4, CLK3 (Homo sapiens, UniProt P49761)
T4 construct: purchased Millipore, Inc. (KinaseProfiler service)
Procedure, shortened: as §1

[5] = target: T5, DAPK3 (Homo sapiens, UniProt O43293)
T5 construct: purchased Millipore, Inc. (KinaseProfiler service)
Procedure, shortened: as §1

[6] = target: T6, EphB2 (Homo sapiens, UniProt P29323)
T6 construct: purchased Millipore, Inc. (KinaseProfiler service)
Procedure, shortened: as §1

[7] = target: T7, FAK (Homo sapiens, UniProt Q05397)
T7 construct: purchased Millipore, Inc. (KinaseProfiler service)
Procedure, shortened: as §1

[8] = target: T8, FGFR1 (Homo sapiens, UniProt P11362)
T8 construct: purchased Millipore, Inc. (KinaseProfiler service)
Procedure, shortened: as §1

[9] = target: T9, FGFR4 (Homo sapiens, UniProt P22455)
T9 construct: purchased Millipore, Inc. (KinaseProfiler service)
Procedure, shortened: as §1

[10] = target: T10, Flt1 (Homo sapiens, UniProt P17948)
T10 construct: purchased Millipore, Inc. (KinaseProfiler service)
Procedure, shortened: as §1

[11] = target: T11, Flt4 (Homo sapiens, UniProt P35916)
T11 construct: purchased Millipore, Inc. (KinaseProfiler service)
Procedure, shortened: as §1

[12] = target: T12, Fms (Homo sapiens, UniProt P07333)
T12 construct: purchased Millipore, Inc. (KinaseProfiler service)
Procedure, shortened: as §1

[13] = target: T13, Fyn (Homo sapiens, UniProt P06241)
T13 construct: purchased Millipore, Inc. (KinaseProfiler service)
Procedure, shortened: as §1

[14] = target: T14, HIPK2 (Homo sapiens, UniProt Q9H2X6)
T14 construct: purchased Millipore, Inc. (KinaseProfiler service)
Procedure, shortened: as §1

[15] = target: T15, IGF-1R Activated (Homo sapiens, UniProt P08069)
T15 construct: purchased Millipore, Inc. (KinaseProfiler service)
Procedure, shortened: as §1

[16] = target: T16, IKKbeta (Homo sapiens, UniProt O14920)
T16 construct: purchased Millipore, Inc. (KinaseProfiler service)
Procedure, shortened: as §1

[17] = target: T17, JAK3 (Homo sapiens, UniProt P52333)
T17 construct: purchased Millipore, Inc. (KinaseProfiler service)
Procedure, shortened: as §1

[18] = target: T18, JNK3 (Homo sapiens, UniProt P53779)
T18 construct: purchased Millipore, Inc. (KinaseProfiler service)
Procedure, shortened: as §1

[19] = target: T19, LKB1 (Homo sapiens, UniProt Q15831)
T19 construct: purchased Millipore, Inc. (KinaseProfiler service)
Procedure, shortened: as §1

[20] = target: T20, MINK (Homo sapiens, UniProt Q8N4C8)
T20 construct: purchased Millipore, Inc. (KinaseProfiler service)
Procedure, shortened: as §1

[21] = target: T21, MKNK2 (Homo sapiens, UniProt Q9HBH9)
T21 construct: purchased Millipore, Inc. (KinaseProfiler service)
Procedure, shortened: as §1

[22] = target: T22, MSSK1 (Homo sapiens, UniProt Q9UPE1)
T22 construct: purchased Millipore, Inc. (KinaseProfiler service)
Procedure, shortened: as §1

[23] = target: T23, MST1 (Homo sapiens, UniProt Q13043)
T23 construct: purchased Millipore, Inc. (KinaseProfiler service)
Procedure, shortened: as §1

[24] = target: T24, MST2 (Homo sapiens, UniProt Q13188)
T24 construct: purchased Millipore, Inc. (KinaseProfiler service)
Procedure, shortened: as §1

[25] = target: T25, MYLK (Homo sapiens, UniProt Q15746)
T25 construct: purchased Millipore, Inc. (KinaseProfiler service)
Procedure, shortened: as §1

[26] = target: T26, NLK (Homo sapiens, UniProt Q9UBE8)
T26 construct: purchased Millipore, Inc. (KinaseProfiler service)
Procedure, shortened: as §1

[27] = target: T27, PAK5 (Homo sapiens, UniProt Q9P286)
T27 construct: purchased Millipore, Inc. (KinaseProfiler service)
Procedure, shortened: as §1

[28] = target: T28, PAK6 (Homo sapiens, UniProt Q9NQU5)
T28 construct: purchased Millipore, Inc. (KinaseProfiler service)
Procedure, shortened: as §1

[29] = target: T29, PKD1 (Homo sapiens, UniProt Q15139)
T29 construct: purchased Millipore, Inc. (KinaseProfiler service)
Procedure, shortened: as §1

[30] = target: T30, Plk2 (Homo sapiens, UniProt Q9NYY3)
T30 construct: purchased Millipore, Inc. (KinaseProfiler service)
Procedure, shortened: as §1

[31] = target: T31, Rsk1 (Homo sapiens, UniProt Q15418)
T31 construct: purchased Millipore, Inc. (KinaseProfiler service)
Procedure, shortened: as §1

[32] = target: T32, SGK1 (Homo sapiens, UniProt O00141)
T32 construct: purchased Millipore, Inc. (KinaseProfiler service)
Procedure, shortened: as §1

[33] = target: T33, SRPK1 (Homo sapiens, UniProt Q96SB4)
T33 construct: purchased Millipore, Inc. (KinaseProfiler service)
Procedure, shortened: as §1

[34] = target: T34, Src (Homo sapiens, UniProt P12931)
T34 construct: purchased Millipore, Inc. (KinaseProfiler service)
Procedure, shortened: as §1

[35] = target: T35, Syk (Homo sapiens, UniProt P43405)
T35 construct: purchased Millipore, Inc. (KinaseProfiler service)
Procedure, shortened: (§2)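 ATP near Km for the individual kinase; inhibitor fixed at 10 μM. Figures are POC averages from duplicate determinations.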

[36] = target: T36, TAO2 (Homo sapiens, UniProt Q9UL54)
T36 construct: purchased Millipore, Inc. (KinaseProfiler service)
Procedure, shortened: as §1

[37] = target: T37, Txk (Homo sapiens, UniProt P42681)
T37 construct: purchased Millipore, Inc. (KinaseProfiler service)
Procedure, shortened: as §1

[38] = target: T38, ULK2 (Homo sapiens, UniProt Q8IYT8)
T38 construct: purchased Millipore, Inc. (KinaseProfiler service)
Procedure, shortened: as §1

[39] = target: T39, eEF-2K (Homo sapiens, UniProt O00418)
T39 construct: purchased Millipore, Inc. (KinaseProfiler service)
Procedure, shortened: as §1

[40] = target: T40, mTOR (Homo sapiens, UniProt P42345)
T40 construct: purchased Millipore, Inc. (KinaseProfiler service)
Procedure, shortened: as §2

[41] = target: T41, mTOR/FKBP12 (Homo sapiens, UniProt P42345)
T41 construct: purchased Millipore, Inc. (KinaseProfiler service)
Procedure, shortened: as §1

T33 sequence (Q96SB4 whole entry): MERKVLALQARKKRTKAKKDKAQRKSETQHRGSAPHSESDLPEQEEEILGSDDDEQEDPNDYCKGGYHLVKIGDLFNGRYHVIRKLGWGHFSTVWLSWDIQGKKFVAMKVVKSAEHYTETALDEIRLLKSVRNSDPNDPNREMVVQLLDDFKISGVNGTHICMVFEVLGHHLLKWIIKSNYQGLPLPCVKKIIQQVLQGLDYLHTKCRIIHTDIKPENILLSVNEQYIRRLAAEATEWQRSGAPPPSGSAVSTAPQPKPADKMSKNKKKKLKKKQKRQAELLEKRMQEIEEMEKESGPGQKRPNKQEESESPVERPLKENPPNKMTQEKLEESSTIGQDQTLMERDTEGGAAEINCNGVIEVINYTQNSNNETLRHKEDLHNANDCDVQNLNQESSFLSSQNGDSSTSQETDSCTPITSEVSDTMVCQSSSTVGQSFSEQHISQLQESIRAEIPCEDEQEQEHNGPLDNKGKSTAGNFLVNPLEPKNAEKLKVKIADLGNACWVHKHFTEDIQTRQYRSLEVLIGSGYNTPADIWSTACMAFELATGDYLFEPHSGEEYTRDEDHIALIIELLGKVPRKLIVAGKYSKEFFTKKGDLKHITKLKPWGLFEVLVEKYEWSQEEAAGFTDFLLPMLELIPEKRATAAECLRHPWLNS
T21 sequence (Q9HBH9 whole entry): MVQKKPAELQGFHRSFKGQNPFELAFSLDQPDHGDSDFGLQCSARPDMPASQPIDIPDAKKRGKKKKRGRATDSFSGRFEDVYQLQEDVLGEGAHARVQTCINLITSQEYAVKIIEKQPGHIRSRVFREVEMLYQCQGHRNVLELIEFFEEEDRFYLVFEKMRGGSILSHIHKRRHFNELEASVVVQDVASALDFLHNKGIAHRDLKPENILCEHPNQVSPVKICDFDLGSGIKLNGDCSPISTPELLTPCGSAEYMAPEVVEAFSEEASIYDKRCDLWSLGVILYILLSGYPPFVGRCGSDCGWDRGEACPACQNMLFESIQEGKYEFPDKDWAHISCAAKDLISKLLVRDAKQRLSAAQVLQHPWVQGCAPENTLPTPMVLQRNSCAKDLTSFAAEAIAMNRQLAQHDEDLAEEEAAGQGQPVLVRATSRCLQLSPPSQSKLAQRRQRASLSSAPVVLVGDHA
T20 sequence (Q8N4C8 whole entry): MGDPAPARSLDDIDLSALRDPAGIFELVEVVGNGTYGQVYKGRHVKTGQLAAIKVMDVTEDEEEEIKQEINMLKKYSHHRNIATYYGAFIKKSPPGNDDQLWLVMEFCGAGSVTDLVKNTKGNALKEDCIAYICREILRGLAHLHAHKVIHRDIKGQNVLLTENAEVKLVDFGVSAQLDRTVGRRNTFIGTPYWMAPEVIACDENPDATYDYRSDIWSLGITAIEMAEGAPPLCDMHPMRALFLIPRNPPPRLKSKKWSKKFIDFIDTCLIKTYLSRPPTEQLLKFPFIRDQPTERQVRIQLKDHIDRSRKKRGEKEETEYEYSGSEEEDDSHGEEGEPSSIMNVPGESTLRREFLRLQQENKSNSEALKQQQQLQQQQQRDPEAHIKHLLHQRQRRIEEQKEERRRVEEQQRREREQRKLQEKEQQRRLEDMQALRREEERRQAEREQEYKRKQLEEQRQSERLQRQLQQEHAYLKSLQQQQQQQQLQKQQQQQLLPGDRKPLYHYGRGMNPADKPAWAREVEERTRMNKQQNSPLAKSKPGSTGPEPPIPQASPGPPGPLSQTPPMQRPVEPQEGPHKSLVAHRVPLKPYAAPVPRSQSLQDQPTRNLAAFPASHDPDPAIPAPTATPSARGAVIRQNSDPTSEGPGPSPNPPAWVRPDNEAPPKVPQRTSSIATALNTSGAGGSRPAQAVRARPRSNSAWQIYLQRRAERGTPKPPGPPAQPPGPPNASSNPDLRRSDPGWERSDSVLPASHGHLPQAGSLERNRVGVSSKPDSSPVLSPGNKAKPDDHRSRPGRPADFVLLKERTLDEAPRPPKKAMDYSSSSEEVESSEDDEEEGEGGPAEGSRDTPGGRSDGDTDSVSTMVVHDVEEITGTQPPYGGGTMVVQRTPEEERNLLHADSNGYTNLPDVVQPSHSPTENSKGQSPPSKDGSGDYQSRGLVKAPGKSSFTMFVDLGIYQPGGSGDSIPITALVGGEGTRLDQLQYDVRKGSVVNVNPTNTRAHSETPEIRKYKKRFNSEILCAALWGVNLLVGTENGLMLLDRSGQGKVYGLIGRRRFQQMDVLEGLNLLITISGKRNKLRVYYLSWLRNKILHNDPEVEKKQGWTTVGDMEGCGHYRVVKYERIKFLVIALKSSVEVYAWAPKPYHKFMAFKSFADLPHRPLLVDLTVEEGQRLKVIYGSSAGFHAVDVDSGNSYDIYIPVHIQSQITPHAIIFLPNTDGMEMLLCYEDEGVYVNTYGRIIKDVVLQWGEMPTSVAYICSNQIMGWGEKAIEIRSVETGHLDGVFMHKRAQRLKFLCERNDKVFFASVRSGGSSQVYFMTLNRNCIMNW
T12 sequence (P07333 20-972): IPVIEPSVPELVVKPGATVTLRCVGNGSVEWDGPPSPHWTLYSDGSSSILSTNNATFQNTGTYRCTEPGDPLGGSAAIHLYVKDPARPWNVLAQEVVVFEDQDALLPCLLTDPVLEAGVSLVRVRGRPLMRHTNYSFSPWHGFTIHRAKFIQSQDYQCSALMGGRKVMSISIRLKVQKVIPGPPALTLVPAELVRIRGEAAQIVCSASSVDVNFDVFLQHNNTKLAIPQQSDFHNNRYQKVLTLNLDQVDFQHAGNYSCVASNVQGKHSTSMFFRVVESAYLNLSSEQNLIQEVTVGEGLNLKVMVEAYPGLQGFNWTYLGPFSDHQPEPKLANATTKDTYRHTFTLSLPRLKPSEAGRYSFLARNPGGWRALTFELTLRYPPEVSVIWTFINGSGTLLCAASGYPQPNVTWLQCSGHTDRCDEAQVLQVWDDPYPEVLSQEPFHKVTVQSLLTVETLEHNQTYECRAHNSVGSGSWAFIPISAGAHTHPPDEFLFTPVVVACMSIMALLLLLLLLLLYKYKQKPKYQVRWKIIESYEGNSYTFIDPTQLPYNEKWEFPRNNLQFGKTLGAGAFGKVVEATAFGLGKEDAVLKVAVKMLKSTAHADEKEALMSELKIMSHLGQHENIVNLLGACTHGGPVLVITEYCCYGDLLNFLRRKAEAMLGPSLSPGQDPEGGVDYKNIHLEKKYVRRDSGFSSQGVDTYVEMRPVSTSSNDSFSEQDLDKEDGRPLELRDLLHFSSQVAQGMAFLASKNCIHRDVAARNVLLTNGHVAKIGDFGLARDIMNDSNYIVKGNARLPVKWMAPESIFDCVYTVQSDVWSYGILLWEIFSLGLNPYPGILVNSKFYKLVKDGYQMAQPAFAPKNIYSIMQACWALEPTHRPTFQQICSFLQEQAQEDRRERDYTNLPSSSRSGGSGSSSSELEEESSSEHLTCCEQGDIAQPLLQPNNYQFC
T8 sequence (P11362 22-822): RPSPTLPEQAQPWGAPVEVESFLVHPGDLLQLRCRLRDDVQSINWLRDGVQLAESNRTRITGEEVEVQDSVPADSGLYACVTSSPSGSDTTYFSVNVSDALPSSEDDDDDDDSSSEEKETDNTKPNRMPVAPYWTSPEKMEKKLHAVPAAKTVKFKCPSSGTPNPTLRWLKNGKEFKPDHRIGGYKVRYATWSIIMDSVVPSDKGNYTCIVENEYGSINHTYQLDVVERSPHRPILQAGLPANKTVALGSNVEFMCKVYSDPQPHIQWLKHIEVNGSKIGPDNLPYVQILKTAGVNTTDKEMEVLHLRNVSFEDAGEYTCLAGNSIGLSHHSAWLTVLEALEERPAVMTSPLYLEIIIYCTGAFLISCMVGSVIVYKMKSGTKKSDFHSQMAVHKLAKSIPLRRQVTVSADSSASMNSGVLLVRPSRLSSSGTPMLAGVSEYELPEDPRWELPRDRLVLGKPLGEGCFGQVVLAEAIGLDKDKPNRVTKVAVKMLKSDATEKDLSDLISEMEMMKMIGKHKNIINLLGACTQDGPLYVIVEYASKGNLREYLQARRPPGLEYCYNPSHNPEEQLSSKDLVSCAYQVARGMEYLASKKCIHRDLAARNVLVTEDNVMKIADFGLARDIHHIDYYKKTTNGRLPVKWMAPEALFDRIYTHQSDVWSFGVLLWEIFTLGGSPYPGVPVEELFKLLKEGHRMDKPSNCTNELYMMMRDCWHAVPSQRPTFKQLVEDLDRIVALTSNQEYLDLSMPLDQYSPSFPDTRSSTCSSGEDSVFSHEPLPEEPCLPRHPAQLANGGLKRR
T18 sequence (P53779 whole entry): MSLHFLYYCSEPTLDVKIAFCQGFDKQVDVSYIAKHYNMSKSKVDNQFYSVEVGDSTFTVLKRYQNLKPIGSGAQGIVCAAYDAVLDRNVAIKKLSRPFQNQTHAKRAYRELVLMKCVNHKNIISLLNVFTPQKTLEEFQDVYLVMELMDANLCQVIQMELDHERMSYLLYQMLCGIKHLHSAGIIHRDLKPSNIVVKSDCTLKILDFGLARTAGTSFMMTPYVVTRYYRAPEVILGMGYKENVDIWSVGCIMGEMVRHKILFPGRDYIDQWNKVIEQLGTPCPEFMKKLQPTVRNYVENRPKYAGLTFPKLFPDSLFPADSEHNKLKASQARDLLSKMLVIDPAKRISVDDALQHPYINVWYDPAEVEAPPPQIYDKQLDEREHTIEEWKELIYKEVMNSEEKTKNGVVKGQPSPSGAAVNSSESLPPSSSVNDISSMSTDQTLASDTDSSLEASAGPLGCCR

Compound: COCCN1C[C@@H](NC(=O)Nc2c(C)c(-c3cnc(C)nc3)nn2-c2ccccc2)[C@H](c2cccc(F)c2)C1 [Compound 1, 1-((3S,4R)-4-(3-fluorophenyl)-1-(2-methoxyethyl)pyrrolidin-3-yl)-3-(4-methyl-3-(2-methylpyrimidin-5-yl)-1-phenyl-1H-pyrazol-5-yl)urea]
- Avg POC [1]: 102 POC
- Avg POC [2]: 112 POC
- Avg POC [3]: 61.5 POC
- Avg POC [4]: 94.5 POC
- Avg POC [5]: 105.5 POC
- Avg POC [6]: 98 POC
- Avg POC [7]: 100.5 POC
- Avg POC [8]: 117 POC
- Avg POC [9]: 105 POC
- Avg POC [10]: 97 POC
- Avg POC [11]: 98.5 POC
- Avg POC [12]: 103 POC
- Avg POC [13]: 96.5 POC
- Avg POC [14]: 101.5 POC
- Avg POC [15]: 105 POC
- Avg POC [16]: 104.5 POC
- Avg POC [17]: 95.5 POC
- Avg POC [18]: 114.5 POC
- Avg POC [19]: 104.5 POC
- Avg POC [20]: 105 POC
- Avg POC [21]: 111 POC
- Avg POC [22]: 127.5 POC
- Avg POC [23]: 107.5 POC
- Avg POC [24]: 102 POC
- Avg POC [25]: 106.5 POC
- Avg POC [26]: 94.5 POC
- Avg POC [27]: 111 POC
- Avg POC [28]: 114.5 POC
- Avg POC [29]: 94.5 POC
- Avg POC [30]: 101 POC
- Avg POC [31]: 102 POC
- Avg POC [32]: 105 POC
- Avg POC [33]: 96 POC
- Avg POC [34]: 120 POC
- Avg POC [35]: 95.5 POC
- Avg POC [36]: 100 POC
- Avg POC [37]: 67 POC
- Avg POC [38]: 106 POC
- Avg POC [39]: 112.5 POC
- Avg POC [40]: 97.5 POC
- Avg POC [41]: 105.5 POC
